Experimental data published in patent publication US9128100B2, “Non-invasive diagnostic method for the evaluation of intestinal lactase deficiency (hypolactasia)” (Venter Pharma, S.L., priority 2012, dated 2015).
“And” between values parts separate entries of the source, which are not always exact repeats. Identical values can stand only once.

Key:
intestinal lactase [1] = biological target: T1, intestinal lactase (Homo sapiens, UniProt P09848); conditions: ES 2208099, cited from earlier work
T1 construct: after its oral administration it is hydrolysed by the intestinal mucosa enzyme; from tissue; host or cells: small-intestinal mucosa (enterocyte brush border) of living human volunteers and patients, in vivo
T1 sequence (P09848 869-1927): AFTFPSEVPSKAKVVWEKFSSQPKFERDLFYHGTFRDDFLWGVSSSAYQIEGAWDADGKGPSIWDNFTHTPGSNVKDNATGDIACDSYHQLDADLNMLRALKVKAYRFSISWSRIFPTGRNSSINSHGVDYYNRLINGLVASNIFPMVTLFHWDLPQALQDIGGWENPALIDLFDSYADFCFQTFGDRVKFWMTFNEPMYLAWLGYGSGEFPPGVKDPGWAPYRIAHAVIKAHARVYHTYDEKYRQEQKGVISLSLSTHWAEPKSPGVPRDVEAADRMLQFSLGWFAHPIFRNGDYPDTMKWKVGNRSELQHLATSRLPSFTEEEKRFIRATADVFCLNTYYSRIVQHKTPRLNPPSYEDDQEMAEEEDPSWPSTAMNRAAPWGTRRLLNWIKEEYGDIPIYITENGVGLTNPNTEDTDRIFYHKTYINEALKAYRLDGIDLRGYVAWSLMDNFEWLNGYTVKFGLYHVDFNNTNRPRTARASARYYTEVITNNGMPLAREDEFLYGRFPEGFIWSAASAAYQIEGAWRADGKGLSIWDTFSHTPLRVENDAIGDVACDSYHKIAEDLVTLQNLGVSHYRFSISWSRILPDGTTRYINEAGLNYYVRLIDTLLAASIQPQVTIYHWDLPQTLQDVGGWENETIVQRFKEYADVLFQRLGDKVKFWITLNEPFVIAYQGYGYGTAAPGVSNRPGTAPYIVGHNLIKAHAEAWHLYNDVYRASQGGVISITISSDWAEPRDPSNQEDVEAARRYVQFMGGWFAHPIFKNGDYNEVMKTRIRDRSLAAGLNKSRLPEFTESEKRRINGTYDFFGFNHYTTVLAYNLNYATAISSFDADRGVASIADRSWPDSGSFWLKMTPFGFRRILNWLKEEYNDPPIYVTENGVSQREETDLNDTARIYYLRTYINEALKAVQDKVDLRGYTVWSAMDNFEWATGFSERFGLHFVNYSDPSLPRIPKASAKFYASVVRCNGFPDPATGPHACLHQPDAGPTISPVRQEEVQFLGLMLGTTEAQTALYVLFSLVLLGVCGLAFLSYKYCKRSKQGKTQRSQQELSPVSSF

intestinal lactase [2] = biological target: T1, intestinal lactase; test: Urinary excretion of xylose after single oral doses of 4-GX in healthy volunteers; format: in vivo
Description: Two groups of subjects were selected. […] Firstly, the lowest suitable oral dose of 4-GX administered to healthy volunteers was determined that enabled reliable detection (in terms of accuracy and reproducibility) of xylose levels in urine and blood via the analytical method to be used. In addition, the tolerance of these subjects to the various doses of 4-GX used in the test and the pharmacokinetics for each dose administered were analysed, both in urine and blood. The doses of 4-GX used were: 0.125 g, 0.250 g, 0.5 g, 1 g, 3 g and 6 g in addition to placebo in 12 healthy volunteers with washout period between doses of between three and seven days. It should be appreciated that the 4-GX doses can include small quantities of water which remain subsequent to the drying process of the 4-GX product. For example, the 4-GX product can contain about 8 wt % to about 12 wt %, most likely about 10 wt % water, based on the total weight of the product. […] In each study period, an ascending dose of 4-GX was administered and the serum and urine concentrations of xylose were measured at various times up to 8 hours following the administration of the drug.
The main measured variable was the quantity of xylose in urine collected following oral administration of 4-GX at the following times: basal, 0-1 h, 1-2 h, 2-3 h, 3-4 h, 4-5 h, 5-6 h, 6-7 h and 7-8 h. […]

intestinal lactase [3] = biological target: T1, intestinal lactase; test: 4-GX test in 5-hour urine, patients with symptoms suggestive of lactose intolerance; format: in vivo
Description: The diagnostic tests to which these patients were subjected were: • Intestinal biopsy: determining intestinal lactase activity therein. • Hydrogen breath test after the oral administration to patients of 50 g of lactose. While this test was being carried out, several capillary-blood glucose test (Glycemia tests) were carried out, calculating the highest increase observed in the blood glucose concentration compared to basal glucose level before starting the test. • 4-GX test in total urine at 0-4 and 0-5 hours, which was orally administered to patients 0.5 g of this product (or 0.45 g in a 4-GX sample including 10 wt % water), collecting the total urine accumulated over 0-4 h and 0-5 h following the administration of 4-GX and determining the amount of excreted xylose in both volumes of urine. • 4-GX test in blood which was orally administered to patients 3 g of this product (or 2.7 g in a 4-GX sample including 10 wt % water) to determine the concentration of plasma xylose in a blood sample 90 minutes after ingestion of the product. The concentration obtained was compared to a basal blood sample extracted before ingestion of 4-GX.
The 4-GX was orally administered in a single dose dissolved in 100 ml of water.
From here on, the optimum dose of 0.5 g of 4-GX (or 0.45 g in a 4-GX sample including 10 wt % water) was used in the 4-GX urine test for the diagnosis of intestinal lactase deficiency by the non-invasive method described in the present invention. This dose was dissolved in 100 ml water, and following the test protocol, 2 samples of urine excreted during the 5 hours following the administration of the drug were taken, in two interval groups: at 4 hours following administration of 4-GX and at 5 hours following administration of 4-GX.
From the data obtained from the various urine tests for intestinal lactase deficiency following oral ingestion of 4-GX described in the present invention, a descriptive statistical analysis was performed of the amount of xylose excreted in the urine up to 4 hours and up to 5 hours following said administration. The same was done with the blodd test for intestinal lactase activity following oral ingestion of 4-GX, where descriptive statistical analysis was performed on the amount of xylose present in the plasma of subjects at 90 minutes following administration of 4-GX. The net increase in the plasma xylose concentration compared to basal values was also calculated.
To obtain the statistical parameters of lactase determination using the various 4-GX tests described in the present invention and later to compare them with the results obtained from the intestinal biopsy test, hydrogen in exhaled air test and capillary-blood glucose test, the normal limits of the measurement of the total amount of xylose excreted in 4-hour and 5-hour urine and the concentration of blood xylose after 90 minutes following ingestion of 4-GX described in Table 5 were used. The normal limits for the other tests were those used in common clinical practice for the diagnosis of lactose intolerance (Arola, H. (1994) Diagnosis of hypolactasia and lactose malabsorption. Scand. J. Gastroenterol. […] (Suppl), 26-35), which are:
For the measurement of lactase by intestinal biopsy, the lower normal limit is established at 10 units/g protein, with values less than this being considered positive.

[4] = 0.5 g 4-GX, 0-5 h urine, cut-off 37.87 mg, 205 patients
[5] = 0.5 g 4-GX, 5-hour urine, lactase in intestinal biopsy as gold standard
[6] = 5-hour urine, after correcting biopsy diagnosis
[7] = 5-hour urine, after correction of the biopsy diagnostic result (five discrepancies)
[8] = 5-hour urine, after correction of the biopsy diagnostic result (four discrepancies)
[9] = 5-hour urine, biopsy as gold standard
[10] = 5-hour urine, final criteria of Table 9

Q: With `O=C[C@H](O)[C@@H](O)[C@@H](CO)O[C@@H]1O[C@H](CO)[C@H](O)[C@H](O)[C@H]1O` [4-GX, 4-O-β-galactopyranosyl-D-xylose] as the compound, how does the “time of maximum xylose in plasma after ingestion” value (intestinal lactase [1]; 3 g 4-GX oral, lactose-tolerant adult volunteers) read?
A: The value was “around 2 hours”.

Q: And the “dose of 4-GX sufficient for reliable detection of xylose in urine” value (intestinal lactase [1]; healthy lactose-tolerant adult volunteers)?
A: The value was 0.25 g.

Q: And the “lowest dose of 4-GX for which excretion of xylose in urine can be distinguished from placebo” value (intestinal lactase [2])?
A: Its value is 0.5 g.

Q: And the “No. Negative” value (intestinal lactase [3]; [4])?
A: Its value is 96.

Q: What about the “No. Positive (patients presenting intestinal lactase deficiency)” value (intestinal lactase [3]; [4]) of the same compound?
A: Its value is 109.

Q: What about the “Percentage of patients negative” value (intestinal lactase [3]; [4]) of the same compound?
A: The value was 47%.

Q: And the “Percentage of patients positive” value (intestinal lactase [3]; [4])?
A: The value was 53.2% and 53%.

Q: And the Negative predictive value (intestinal lactase [3]; [5])?
A: Its Negative predictive value is 92.7% and 92.71%.

Q: What about the Positive predictive value (intestinal lactase [3]; [5]) of the same compound?
A: The Positive predictive value was 92.7% and 92.66%.

Q: What about the Sensitivity (intestinal lactase [3]; [5]) of the same compound?
A: The Sensitivity was 93.5% and 93.52%.

Q: And the Specificity (intestinal lactase [3]; [5])?
A: Its Specificity is 91.8% and 91.75%.

Q: What about the “sensitivity calculated using the ROC curves” value (intestinal lactase [3]; 5-hour urine samples) of the same compound?
A: The value was 93.5%.

Q: And the “specificity calculated using the ROC curves” value (intestinal lactase [3]; 5-hour urine samples)?
A: The value was 91.8%.

Q: And the “range of recalculated sensitivity, specificity, positive and negative predictive values” (intestinal lactase [3]; 5-hour urine test, after correcting biopsy diagnosis)?
A: Its value is 96.94-99.07.

Q: What about the false negatives (intestinal lactase [3]; [6]) of the same compound?
A: Its false negatives is 0.93%.

Q: And the negative likelihood ratio (intestinal lactase [3]; [6])?
A: Its negative likelihood ratio is 0.010.

Q: And the positive likelihood ratio (intestinal lactase [3]; [6])?
A: The positive likelihood ratio was 32.361.

Q: And the Negative predictive value (intestinal lactase [3]; [7])?
A: Its Negative predictive value is 98.96%.

Q: And the Positive predictive value (intestinal lactase [3]; [7])?
A: The Positive predictive value was 97.25%.

Q: And the Sensitivity (intestinal lactase [3]; [7])?
A: The Sensitivity was 99.07%.

Q: What about the Specificity (intestinal lactase [3]; [7]) of the same compound?
A: The Specificity was 96.94%.

Q: What about the Negative predictive value (intestinal lactase [3]; [8]) of the same compound?
A: Its Negative predictive value is 100.00%.

Q: What about the Positive predictive value (intestinal lactase [3]; [8]) of the same compound?
A: The Positive predictive value was 98.17%.

Q: And the Sensitivity (intestinal lactase [3]; [8])?
A: Its Sensitivity is 100.00%.

Q: And the Specificity (intestinal lactase [3]; [8])?
A: Its Specificity is 97.96%.

Q: What about the “area under the ROC curve” value (intestinal lactase [3]; [9]) of the same compound?
A: The value was 0.9315.

Q: What about the false negatives (intestinal lactase [3]; [9]) of the same compound?
A: Its false negatives is 6.5%.

Q: And the false positives (intestinal lactase [3]; [9])?
A: Its false positives is 8.2%.

Q: And the “concordant positive results, percentage” value (intestinal lactase [3]; [10])?
A: The value was 99.1%.

Q: What about the “final number of concordant positive results” value (intestinal lactase [3]; [10]) of the same compound?
A: Its value is 106.

Q: And the “negative results (concordant), percentage” value (intestinal lactase [3]; [10])?
A: The value was 96.9%.

Q: And the “number of negative results (concordant)” value (intestinal lactase [3]; [10])?
A: Its value is 95.
